Non-standard residues stand in square brackets, D forms with d. Residues, ends and D or L forms follow the SMILES beside them. dPhe(4-Cl) = N[C@H](Cc1ccc(Cl)cc1)C(=O)O; d2Nal = N[C@H](Cc1ccc2ccccc2c1)C(=O)O; dCit = NC(=O)NCCC[C@@H](N)C(=O)O; d3Pal = N[C@H](Cc1cccnc1)C(=O)O
What was measured:
Homo sapiens [1] = organism: Homo sapiens; assay: Liver toxicity in human assessed as induction of drug-induced liver injury by measuring verified drug-induced liver injury concern status
Homo sapiens [2] = organism: Homo sapiens; assay: Liver toxicity in human assessed as induction of drug-induced liver injury by measuring severity class index
Wherever DILI severity class is given: key of the grades not given here.

Compound | DILI_Concern (Homo sapiens [1]) | DILI_severity_class (Homo sapiens [2])
C=C1/C(=C\C=C2/CCC[C@]3(C)[C@@H]([C@H](C)CCCC(C)(C)O)CC[C@@H]23)C[C@@H](O)C[C@@H]1O [CALCITRIOL] | No-Dili-Concern | 0
CC(=O)[O-].CC(=O)[O-].[Ca+2] [CALCIUM ACETATE] | No-Dili-Concern | 0
CCCCCOC(=O)Nc1nc(=O)n([C@@H]2O[C@H](C)[C@@H](O)[C@H]2O)cc1F [CAPECITABINE] | Ambiguous-Dili-Concern | 2
C[C@H](CS)C(=O)N1CCC[C@H]1C(=O)O [CAPTOPRIL] | Less-Dili-Concern | 7
NC(=O)N1c2ccccc2C=Cc2ccccc21 [CARBAMAZEPINE] | Most-Dili-Concern | 7
CC1(C)S[C@@H]2[C@H](NC(=O)C(C(=O)O)c3ccccc3)C(=O)N2[C@H]1C(=O)O (some centres undefined) [CARBENICILLIN] | Less-Dili-Concern | 3
C[C@@](Cc1ccc(O)c(O)c1)(NN)C(=O)O [CARBIDOPA ANHYDROUS] | Ambiguous-Dili-Concern | 3
CN(C)CCOC(c1ccc(Cl)cc1)c1ccccn1 (centres undefined) [CARBINOXAMINE] | No-Dili-Concern | 0
CCCCC[C@](C)(O)/C=C/[C@@H]1[C@@H](C/C=C\CCCC(=O)O)[C@@H](O)C[C@H]1O.NC(CO)(CO)CO [CARBOPROST TROMETHAMINE] | No-Dili-Concern | 0
CCCC(C)(COC(N)=O)COC(=O)NC(C)C (centres undefined) [CARISOPRODOL] | No-Dili-Concern | 0
COc1ccccc1OCCNCC(O)COc1cccc2[nH]c3ccccc3c12 (centres undefined) [CARVEDILOL] | Less-Dili-Concern | 3
CC[C@H](C)C[C@H](C)CCCCCCCCC(=O)N[C@H]1C[C@@H](O)[C@@H](NCCN)NC(=O)[C@@H]2[C@@H](O)CCN2C(=O)[C@H]([C@H](O)CCN)NC(=O)[C@H]([C@H](O)[C@@H](O)c2ccc(O)cc2)NC(=O)[C@@H]2C[C@@H](O)CN2C(=O)[C@H]([C@@H](C)O)NC1=O [CASPOFUNGIN] | Ambiguous-Dili-Concern | 7
N[C@@H](C(=O)N[C@@H]1C(=O)N2C(C(=O)O)=C(Cl)CS[C@H]12)c1ccccc1 [CEFACLOR ANHYDROUS] | Less-Dili-Concern | 3
CC1=C(C(=O)O)N2C(=O)[C@@H](NC(=O)[C@H](N)c3ccc(O)cc3)[C@H]2SC1 [CEFADROXIL] | Less-Dili-Concern | 7
Cc1nnc(SCC2=C(C(=O)O)N3C(=O)[C@@H](NC(=O)Cn4cnnn4)[C@H]3SC2)s1 [CEFAZOLIN] | Less-Dili-Concern | 3
CO/N=C(\C(=O)N[C@@H]1C(=O)N2C(C(=O)O)=C(/C=C\c3scnc3C)CS[C@H]12)c1csc(N)n1 [CEFDITOREN] | Ambiguous-Dili-Concern | 2
C=CC1=C(C(=O)O)N2C(=O)[C@@H](NC(=O)/C(=N\OCC(=O)O)c3csc(N)n3)[C@H]2SC1 [CEFIXIME] | Ambiguous-Dili-Concern | 4
CCN1CCN(C(=O)N[C@@H](C(=O)N[C@@H]2C(=O)N3C(C(=O)O)=C(CSc4nnnn4C)CS[C@H]23)c2ccc(O)cc2)C(=O)C1=O [CEFOPERAZONE] | Less-Dili-Concern | 3
CO/N=C(\C(=O)N[C@@H]1C(=O)N2C(C(=O)O)=C(COC(C)=O)CS[C@H]12)c1csc(N)n1 [CEFOTAXIME] | Less-Dili-Concern | 5
CO[C@@]1(NC(=O)C2SC(=C(C(N)=O)C(=O)O)S2)C(=O)N2C(C(=O)O)=C(CSc3nnnn3C)CS[C@@H]21 (some centres undefined) [CEFOTETAN] | Ambiguous-Dili-Concern | 3
CO[C@@]1(NC(=O)Cc2cccs2)C(=O)N2C(C(=O)O)=C(COC(N)=O)CS[C@@H]21 [CEFOXITIN] | Ambiguous-Dili-Concern | 3
COCC1=C(C(=O)O)N2C(=O)[C@@H](NC(=O)/C(=N\OC)c3csc(N)n3)[C@H]2SC1 [CEFPODOXIME] | Ambiguous-Dili-Concern | 3
CC=CC1=C(C(=O)O)N2C(=O)[C@@H](NC(=O)[C@H](N)c3ccc(O)cc3)[C@H]2SC1 [CEFPROZIL] | Less-Dili-Concern | 4
CC(C)(O/N=C(\C(=O)N[C@@H]1C(=O)N2C(C(=O)[O-])=C(C[n+]3ccccc3)CS[C@H]12)c1csc(N)n1)C(=O)O [CEFTAZIDIME] | Less-Dili-Concern | 3

Compound | DILI_Concern (Homo sapiens [1]) | DILI_severity_class (Homo sapiens [2])
Nc1nc(/C(=C/CC(=O)O)C(=O)N[C@@H]2C(=O)N3C(C(=O)O)=CCS[C@H]23)cs1 [CEFTIBUTEN] | Ambiguous-Dili-Concern | 3
CO/N=C(\C(=O)N[C@@H]1C(=O)N2C(C(=O)O)=CCS[C@H]12)c1csc(N)n1 [CEFTIZOXIME] | Ambiguous-Dili-Concern | 4
CO/N=C(\C(=O)N[C@@H]1C(=O)N2C(C(=O)O)=C(CSc3nc(=O)c(=O)[nH]n3C)CS[C@H]12)c1csc(N)n1 [CEFTRIAXONE] | Less-Dili-Concern | 4
CO/N=C(\C(=O)N[C@@H]1C(=O)N2C(C(=O)O)=C(COC(N)=O)CS[C@H]12)c1ccco1 [CEFUROXIME] | Less-Dili-Concern | 5
Cc1ccc(-c2cc(C(F)(F)F)nn2-c2ccc(S(N)(=O)=O)cc2)cc1 [CELECOXIB] | Less-Dili-Concern | 3
CC1=C(C(=O)O)N2C(=O)[C@@H](NC(=O)[C@H](N)c3ccccc3)[C@H]2SC1 [CEPHALEXIN ANHYDROUS] | Less-Dili-Concern | 4
CC1=C(C(=O)O)N2C(=O)[C@@H](NC(=O)[C@H](N)C3=CCC=CC3)[C@H]2SC1 [CEPHRADINE] | Ambiguous-Dili-Concern | 4
O=C(O)COCCN1CCN(C(c2ccccc2)c2ccc(Cl)cc2)CC1 (centres undefined) [CETIRIZINE] | Less-Dili-Concern | 3
CC(=O)N[C@H](Cc1ccc2ccccc2c1)C(=O)N[C@H](Cc1ccc(Cl)cc1)C(=O)N[C@H](Cc1cccnc1)C(=O)N[C@@H](CO)C(=O)N[C@@H](Cc1ccc(O)cc1)C(=O)N[C@H](CCCNC(N)=O)C(=O)N[C@@H](CC(C)C)C(=O)N[C@@H](CCCNC(=N)N)C(=O)N1CCC[C@H]1C(=O)N[C@H](C)C(N)=O [CETRORELIX] (Ac-[d2Nal][dPhe(4-Cl)][d3Pal]SY[dCit]LRP[dA]-NH2) | Ambiguous-Dili-Concern | 3
CC1OC2(CS1)CN1CCC2CC1 (centres undefined) [CEVIMELINE] | Ambiguous-Dili-Concern | 3
C[C@H](CCC(=O)O)[C@H]1CC[C@H]2[C@@H]3[C@H](O)C[C@@H]4C[C@H](O)CC[C@]4(C)[C@H]3CC[C@]12C [CHENODIOL] | Ambiguous-Dili-Concern | 8
O=C(O)CCCc1ccc(N(CCCl)CCCl)cc1 [CHLORAMBUCIL] | Less-Dili-Concern | 3
O=C(N[C@H](CO)[C@H](O)c1ccc([N+](=O)[O-])cc1)C(Cl)Cl [CHLORAMPHENICOL] | No-Dili-Concern | 0
CN1CCN(C(c2ccccc2)c2ccc(Cl)cc2)CC1 (centres undefined) [CHLORCYCLIZINE] | Less-Dili-Concern | 0
CNC1=Nc2ccc(Cl)cc2C(c2ccccc2)=[N+]([O-])C1 [CHLORDIAZEPOXIDE] | Less-Dili-Concern | 5
CN1C(=O)CCS(=O)(=O)C1c1ccc(Cl)cc1 (centres undefined) [CHLORMEZANONE] | Most-Dili-Concern | 8
CCN(CC)CCCC(C)Nc1ccnc2cc(Cl)ccc12 (centres undefined) [CHLOROQUINE] | Less-Dili-Concern | 3
NS(=O)(=O)c1cc2c(cc1Cl)N=CNS2(=O)=O [CHLOROTHIAZIDE] | Less-Dili-Concern | 2
CN(C)CCC(c1ccc(Cl)cc1)c1ccccn1 (centres undefined) [CHLORPHENIRAMINE] | No-Dili-Concern | 0
CN(C)CCCN1c2ccccc2Sc2ccc(Cl)cc21 [CHLORPROMAZINE] | Less-Dili-Concern | 2
CCCNC(=O)NS(=O)(=O)c1ccc(Cl)cc1 [CHLORPROPAMIDE] | Less-Dili-Concern | 2
NS(=O)(=O)c1cc(C2(O)NC(=O)c3ccccc32)ccc1Cl (centres undefined) [CHLORTHALIDONE] | Ambiguous-Dili-Concern | 2
Nc1ccn(C[C@@H](CO)OCP(=O)(O)O)c(=O)n1.O.O [CIDOFOVIR] | Ambiguous-Dili-Concern | 5

Reference: ChEMBL document CHEMBL4028802, “DILIrank: the largest reference drug list ranked by the risk for developing drug-induced liver injury in humans” (Drug Discov Today, 2016)
